Assay results: patent publication US12103952B2, “Methods for expressing proteins in axons” (Cornell University, priority 2010, dated 2024)

Tested on: E15 dissociated DRG neurons
Test: NGF-mediated retrograde survival in compartmented (Campenot) chambers, TUNEL assay
Format: cell-based, rat
Protocol: FIGS. 2A-E are results showing that local protein synthesis in axons is required for NGF-dependent survival. (A) Phospho-4E-BP1 levels increase in growth cones in response to NGF treatment. DRG neurons were incubated with NGF-replete or NGF-free media; phospho-4E-BP1 levels in axons were measured by immunofluorescence. Scale bar, 50 μm. (B) Quantification of total and phospho-4EBP1 in (A) p=0.012. Numbers on bars represent n axons per condition. (C) Schematic diagram of compartmented (Campenot) chambers. E15 dissociated DRG neurons are cultured in the cell body compartment and axons grow under a thinly applied silicone grease layer that seals the chamber with the Permanox® plastic culture slide. (D) Application of protein synthesis inhibitors to axons blocks NGF-mediated retrograde survival. Dissociated DRG neurons were grown in compartmentalized chambers, and vehicle or NGF was added to the axon compartment. 1 μM cycloheximide (CHX) or 40 μM anisomycin (Aniso) were added to the axon compartment concurrently with NGF media. Cell body compartments were kept NGF-free during the course of the experiment. Cells crossing the divider were retrogradely labeled with WGA-Alexa555 and only WGA-positive cell bodies were counted in the data set. Survival was assessed by TUNEL assay. Examples of non-apoptotic and apoptotic are indicated with closed and open arrows, respectively (Blue=DAPI, Green=TUNEL). Scale bar, 20 μm. (E) Quantification of results from (D). *p<0.001. Numbers on bars represent n cells per condition.
Campenot chambers were modified for FISH and Immunofluorescence analysis as follows: Teflon dividers were applied to poly-D-lysine, laminin and collagen (1 mg/ml)-coated Lab-Tek chambers (NUNC). The low autofluorescence of the Permanox® plastic in these chambers allows us to perform fluorescence analyses on these cultures much more readily than is possible using traditional cell culture plasticware. E15 dissociated DRG neurons were plated in the cell body compartment in media containing 100 ng/ml NGF and 20 μM 5′-fluorodeoxyuridine to inhibit glial growth. Media was changed every 2 DIV and NGF concentration in the cell body compartment was halved at each media change. At DIV 5, when axons had crossed the divide into the axonal compartment, NGF was withdrawn from the cell body compartment and experimental media containing NGF (0 ng/ml or 30 ng/ml) and/or drug treatments/siRNA transfection reagents was applied to the axon compartment for a further 2 DIV. All media were completely replaced every subsequent 12 hours to ensure purity of the conditions in the respective compartments. […]

[1] = axonal application together with NGF, 1 μM cycloheximide or 40 μM anisomycin, compared to NGF alone

Compound	neuronal survival [1]	DRG survival (5 DIV compartmented cultures, NGF applied to either axons or cell bodies individually)	neuronal survival (NGF applied exclusively to the axonal compartment, cell body compartment NGF-free, 48 hour, compared to vehicle-treated axons)
COc1ccc(C[C@H]2NC[C@H](O)[C@H]2OC(C)=O)cc1 [anisomycin]	significant reduction in survival	–	–
C[C@@H]1C[C@@H]([C@H](O)CC2CC(=O)NC(=O)C2)C(=O)[C@@H](C)C1 [cycloheximide]	significant reduction in survival	–	–
NGF: nerve growth factor	–	capable of supporting DRG survival	significant increase in neuronal survival
